Experimental data from patent US20060241297A1, “Pyridinylamino-pyrimidine derivatives as protein kinase inhibitors” (Cyclacel Limited, priority 2003, published 2006).
Like-named read-outs stand apart in the source and are kept apart here.

How the values were obtained:
[1] = system: transformed human cell lines (A549, HT29, Saos-2); experiment: 72-h MTT cytotoxicity assay, average over cell lines; assay type: cell-based
Experimental: (§1) The compounds from the examples above were subjected to a standard cellular proliferation assay using human tumour cell lines obtained from the ATCC (American Type Culture Collection, 10801 University Boulevard, Manessas, Va. 20110-2209, USA). Standard 72-h MTT (thiazolyl blue; 3-[4,5-dimethylthiazol-2-yl]-2,5-diphenyltetrazolium bromide) assays were performed. In short: cells were seeded into 96-well plates according to doubling time and incubated overnight at 37° C. Test compounds were made up in DMSO and a 1/3 dilution series prepared in 100 μL cell media, added to cells (in triplicates) and incubated for 72 ho at 37° C. MTT was made up as a stock of 5 mg/mL in cell media and filter-sterilised. Media was removed from cells followed by a wash with 200 μL PBS. MTT solution was then added at 20 μL per well and incubated in the dark at 37° C. for 4 h. MTT solution was removed and cells again washed with 200 μL PBS. MTT dye was solubilised with 200 μL per well of DMSO with agitation. Absorbance was read at 540 nm and data analysed using curve-fitting software (GraphPad Prism version 3.00 for Windows, GraphPad Software, San Diego Calif. USA) to determine IC50 values (concentration of test compound which inhibits cell growth by 50%). Various modifications and variations of the described aspects of the invention will be apparent to those skilled in the art without departing from the scope and spirit of the invention. Although the invention has been described in connection with specific preferred embodiments, it should be understood that the invention as claimed should not be unduly limited to such specific embodiments. Indeed, various modifications of the described modes of carrying out the invention which are obvious to those skilled in the relevant fields are intended to be within the scope of the following claims.

CDK2/cyclin E = CDK2/cyclin E (Homo sapiens, UniProt P24941); experiment: Kinase assay, incorporation of radioactive phosphate from ATP; assay type: biochemical; conditions: 100 μM ATP, 30° C.; read-out: Kinase inhibition Ki CDK2/cyclin E
Experimental: (§2) The compounds from the examples above were investigated for their ability to inhibit the enzymatic activity of various protein kinases. This was achieved by measurement of incorporation of radioactive phosphate from ATP into appropriate polypeptide substrates. Recombinant protein kinases and kinase complexes were produced or obtained commercially. Assays were performed using 96-well plates and appropriate assay buffers (typically 25 mM β-glycerophosphate, 20 mM MOPS, 5 mM EGTA, 1 mM DTT, 1 mM […], pH 7.4), into which were added 2-4 μg of active enzyme with appropriate substrates. The reactions were initiated by addition of Mg/ATP mix (15 mM MgCl2+100 μM ATP with 30-50 kBq per well of [γ-^32P]-ATP) and mixtures incubated as required at 30° C. Reactions were stopped on ice, followed by filtration through p81 filterplates or GF/C filterplates (Whatman Polyfiltronics, Kent, UK). After washing 3 times with 75 mM aq orthophosphoric acid, plates were dried, scintillant added and incorporated radioactivity measured in a scintillation counter (TopCount, Packard Instruments, Pangboume, Berks, UK). Compounds for kinase assay were made up as 10 mM stocks in DMSO and diluted into 10% DMSO in assay buffer. Data was analysed using curve-fitting software (GraphPad Prism version 3.00 for Windows, GraphPad Software, San Diego Calif. USA) to determine IC50 values (concentration of test compound which inhibits kinase activity by 50%.).

CDK9/cyclin T1 = CDK9/cyclin T1 (Homo sapiens, UniProt P50750); experiment: as above; assay type: biochemical; conditions: 100 μM ATP, 30° C.; read-out: Kinase inhibition Ki CDK9/cyclin T1
Experimental: as §2

CDK4/cyclin D1 = CDK4/cyclin D1 (Homo sapiens, UniProt P11802); experiment: as above; assay type: biochemical; conditions: 100 μM ATP, 30° C.; read-out: Kinase inhibition Ki CDK4/cyclin D1
Experimental: as §2

HT29 = experiment: 72-h MTT cytotoxicity assay; assay type: cell-based; conditions: Homo sapiens, HT-29
Experimental: as §1

Saos-2 = experiment: 72-h MTT cytotoxicity assay; assay type: cell-based; conditions: Homo sapiens
Experimental: as §1

A549 = experiment: 72-h MTT cytotoxicity assay; assay type: cell-based; conditions: Homo sapiens
Experimental: as §1

GSK3β = GSK3β (Homo sapiens, UniProt P49841); experiment: Kinase assay, incorporation of radioactive phosphate from ATP; assay type: biochemical; conditions: 100 μM ATP, 30° C.; read-out: Kinase inhibition Ki GSK3β
Experimental: as §2

CDK1/cyclin B = CDK1/cyclin B (Homo sapiens, UniProt P06493); experiment: as above; assay type: biochemical; conditions: 100 μM ATP, 30° C.; read-out: Kinase inhibition Ki CDK1/cyclin B
Experimental: as §2

CDK2/cyclin A = CDK2/cyclin A (Homo sapiens, UniProt P24941); experiment: as above; assay type: biochemical; conditions: 100 μM ATP, 30° C.; read-out: Kinase inhibition Ki CDK2/cyclin A
Experimental: as §2

CDK7/cyclin H = CDK7/cyclin H (Homo sapiens, UniProt P50613); experiment: as above; assay type: biochemical; conditions: 100 μM ATP, 30° C.; read-out: Kinase inhibition Ki CDK7/cyclin H
Experimental: as §2

Aurora-A = biological target: T1, Aurora-A (Homo sapiens, UniProt O14965); experiment: as above; assay type: biochemical; conditions: 100 μM ATP, 30° C.; read-out: Kinase inhibition Ki Aurora-A
T1 sequence (O14965 1-403): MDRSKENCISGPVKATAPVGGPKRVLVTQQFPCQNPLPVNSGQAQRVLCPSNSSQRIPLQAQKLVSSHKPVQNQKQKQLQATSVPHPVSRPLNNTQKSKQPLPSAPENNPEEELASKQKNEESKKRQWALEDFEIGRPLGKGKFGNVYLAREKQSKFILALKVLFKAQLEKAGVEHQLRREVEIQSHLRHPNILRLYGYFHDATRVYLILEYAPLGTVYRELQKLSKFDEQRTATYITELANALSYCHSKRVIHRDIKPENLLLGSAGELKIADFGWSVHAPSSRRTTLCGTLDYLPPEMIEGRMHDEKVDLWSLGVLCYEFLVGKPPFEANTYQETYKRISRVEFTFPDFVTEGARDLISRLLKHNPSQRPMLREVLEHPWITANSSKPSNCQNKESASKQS
Experimental: as §2

[2] = average of A549, HT29, Saos-2, read-out: 72-h MTT IC50 Average
[3] = in vitro, read-out: IC50 value (average) against one or more transformed human cell lines, 72-h MTT cytotoxicity assay

Sequence of CDK7/cyclin H (P50613 whole entry): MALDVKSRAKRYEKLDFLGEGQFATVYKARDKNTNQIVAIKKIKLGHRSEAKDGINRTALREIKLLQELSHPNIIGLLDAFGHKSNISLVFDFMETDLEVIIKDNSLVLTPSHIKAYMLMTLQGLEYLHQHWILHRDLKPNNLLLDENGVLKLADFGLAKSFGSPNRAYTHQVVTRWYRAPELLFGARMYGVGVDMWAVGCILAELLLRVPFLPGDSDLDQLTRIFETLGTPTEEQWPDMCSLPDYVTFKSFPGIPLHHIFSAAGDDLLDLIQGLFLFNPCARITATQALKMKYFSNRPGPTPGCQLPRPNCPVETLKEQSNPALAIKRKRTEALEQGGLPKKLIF
Sequence of CDK7/cyclin H (P51946 whole entry partner): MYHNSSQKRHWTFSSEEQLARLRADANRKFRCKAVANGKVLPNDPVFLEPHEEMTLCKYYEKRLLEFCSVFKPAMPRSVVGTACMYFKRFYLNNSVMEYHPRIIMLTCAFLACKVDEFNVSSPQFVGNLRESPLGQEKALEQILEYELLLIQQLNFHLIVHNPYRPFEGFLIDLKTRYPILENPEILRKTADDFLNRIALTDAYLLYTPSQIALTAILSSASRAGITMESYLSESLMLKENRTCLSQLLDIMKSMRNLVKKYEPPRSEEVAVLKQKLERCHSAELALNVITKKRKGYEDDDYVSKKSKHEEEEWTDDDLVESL
Sequence of CDK1/cyclin B (P06493 whole entry): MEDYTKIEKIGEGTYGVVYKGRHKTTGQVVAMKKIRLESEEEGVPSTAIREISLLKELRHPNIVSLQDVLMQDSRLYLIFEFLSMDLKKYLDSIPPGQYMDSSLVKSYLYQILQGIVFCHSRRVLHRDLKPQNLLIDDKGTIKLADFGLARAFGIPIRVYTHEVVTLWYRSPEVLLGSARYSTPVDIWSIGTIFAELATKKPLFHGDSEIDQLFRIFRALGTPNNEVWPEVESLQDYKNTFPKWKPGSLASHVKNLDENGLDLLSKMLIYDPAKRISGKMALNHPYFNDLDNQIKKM
Sequence of CDK1/cyclin B (P14635 whole entry partner): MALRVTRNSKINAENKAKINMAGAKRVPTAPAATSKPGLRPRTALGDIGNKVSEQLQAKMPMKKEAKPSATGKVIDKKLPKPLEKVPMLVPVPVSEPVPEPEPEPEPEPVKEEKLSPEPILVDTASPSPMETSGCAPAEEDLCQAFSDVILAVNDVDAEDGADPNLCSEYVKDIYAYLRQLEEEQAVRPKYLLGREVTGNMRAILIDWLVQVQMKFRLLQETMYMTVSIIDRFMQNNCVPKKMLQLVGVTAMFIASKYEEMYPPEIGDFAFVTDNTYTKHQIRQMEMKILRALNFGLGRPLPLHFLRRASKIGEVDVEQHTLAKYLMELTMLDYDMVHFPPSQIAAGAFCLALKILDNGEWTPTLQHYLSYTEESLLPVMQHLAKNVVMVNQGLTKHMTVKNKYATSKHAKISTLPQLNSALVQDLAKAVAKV
Sequence of GSK3β (P49841 whole entry): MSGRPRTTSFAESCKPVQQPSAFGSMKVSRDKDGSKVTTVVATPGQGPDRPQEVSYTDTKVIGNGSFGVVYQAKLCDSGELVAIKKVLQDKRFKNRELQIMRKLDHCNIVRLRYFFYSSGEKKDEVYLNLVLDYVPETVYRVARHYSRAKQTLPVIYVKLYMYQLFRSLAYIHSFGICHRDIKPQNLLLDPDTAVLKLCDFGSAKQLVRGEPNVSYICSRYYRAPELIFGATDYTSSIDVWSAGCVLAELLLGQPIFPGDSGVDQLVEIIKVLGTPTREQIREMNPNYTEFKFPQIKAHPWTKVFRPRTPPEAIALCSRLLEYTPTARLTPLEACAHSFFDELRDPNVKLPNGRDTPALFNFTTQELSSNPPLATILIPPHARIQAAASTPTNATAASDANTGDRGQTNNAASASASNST
Sequence of CDK4/cyclin D1 (P11802 whole entry): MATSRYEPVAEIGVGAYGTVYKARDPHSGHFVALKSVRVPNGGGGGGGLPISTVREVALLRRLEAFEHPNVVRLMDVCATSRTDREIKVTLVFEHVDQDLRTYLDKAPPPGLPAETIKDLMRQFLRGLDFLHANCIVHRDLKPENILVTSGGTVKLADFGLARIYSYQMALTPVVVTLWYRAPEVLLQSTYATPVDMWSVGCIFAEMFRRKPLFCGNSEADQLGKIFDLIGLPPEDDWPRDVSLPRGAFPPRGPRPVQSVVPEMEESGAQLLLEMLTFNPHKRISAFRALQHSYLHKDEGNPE
Sequence of CDK4/cyclin D1 (P24385 whole entry partner): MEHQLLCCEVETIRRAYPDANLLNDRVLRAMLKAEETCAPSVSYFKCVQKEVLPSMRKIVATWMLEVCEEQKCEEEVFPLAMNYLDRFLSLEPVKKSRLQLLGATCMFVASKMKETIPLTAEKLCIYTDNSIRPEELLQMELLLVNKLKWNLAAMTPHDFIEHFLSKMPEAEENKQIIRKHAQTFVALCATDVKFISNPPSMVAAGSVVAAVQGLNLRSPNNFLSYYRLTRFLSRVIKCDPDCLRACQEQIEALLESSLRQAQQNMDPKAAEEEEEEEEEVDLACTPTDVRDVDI
Sequence of CDK9/cyclin T1 (P50750 whole entry): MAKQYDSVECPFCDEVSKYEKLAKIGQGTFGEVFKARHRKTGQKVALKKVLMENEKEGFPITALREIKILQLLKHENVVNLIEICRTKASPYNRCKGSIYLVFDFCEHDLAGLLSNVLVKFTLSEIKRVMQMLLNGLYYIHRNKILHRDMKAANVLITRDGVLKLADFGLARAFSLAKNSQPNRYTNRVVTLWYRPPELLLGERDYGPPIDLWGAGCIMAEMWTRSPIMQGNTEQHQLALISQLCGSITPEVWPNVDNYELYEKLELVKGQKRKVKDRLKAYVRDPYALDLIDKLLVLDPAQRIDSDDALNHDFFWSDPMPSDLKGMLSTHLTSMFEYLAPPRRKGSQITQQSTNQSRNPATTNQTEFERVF
Sequence of CDK9/cyclin T1 (O60563 whole entry partner): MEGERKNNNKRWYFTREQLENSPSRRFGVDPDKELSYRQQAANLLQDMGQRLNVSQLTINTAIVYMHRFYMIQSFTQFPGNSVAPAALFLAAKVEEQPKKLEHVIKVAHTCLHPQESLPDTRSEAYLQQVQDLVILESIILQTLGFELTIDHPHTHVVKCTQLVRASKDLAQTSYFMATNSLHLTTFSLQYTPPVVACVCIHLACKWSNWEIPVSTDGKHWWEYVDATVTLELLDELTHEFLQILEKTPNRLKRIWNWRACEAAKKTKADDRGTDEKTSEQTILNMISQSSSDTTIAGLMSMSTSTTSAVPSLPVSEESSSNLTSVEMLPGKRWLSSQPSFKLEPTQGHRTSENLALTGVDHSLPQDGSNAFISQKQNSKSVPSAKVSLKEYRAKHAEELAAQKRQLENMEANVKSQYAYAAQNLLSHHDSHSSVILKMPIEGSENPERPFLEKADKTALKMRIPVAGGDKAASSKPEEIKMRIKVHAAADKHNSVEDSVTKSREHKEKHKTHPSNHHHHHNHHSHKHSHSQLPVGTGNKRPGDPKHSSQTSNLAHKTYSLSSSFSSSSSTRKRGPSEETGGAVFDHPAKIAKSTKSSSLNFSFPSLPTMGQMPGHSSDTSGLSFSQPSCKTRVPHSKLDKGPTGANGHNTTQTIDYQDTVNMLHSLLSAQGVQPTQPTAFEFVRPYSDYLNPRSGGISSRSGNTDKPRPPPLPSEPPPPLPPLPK

Row | Compound | IC50 [1, 2] [nM] | IC50 [1, 3] [nM] | Ki (CDK2/cyclin E) [nM] | Ki (CDK9/cyclin T1) [nM] | Ki (CDK4/cyclin D1) [nM] | IC50 (HT29) [nM] | IC50 (Saos-2) [nM] | IC50 (A549) [nM] | Ki (GSK3β) [nM] | Ki (CDK1/cyclin B) [nM] | Ki (CDK2/cyclin A) [nM] | Ki (CDK7/cyclin H) [nM] | Ki (Aurora-A) [nM]
1 | Cc1nc(C)c(-c2ccnc(Nc3cccnc3)n2)s1 [Compound 1, [4-(2,4-Dimethyl-thiazol-5-yl)-pyrimidin-2-yl]-pyridin-3-yl-amine] | 3600 ± 300 | < 10000 | 110 | 80 | 340 | 3700 | 3700 | 3200 |  |  |  |  | 
2 | Cc1c(-c2ccnc(Nc3ccc(Cl)nc3)n2)sc(=O)n1C [Compound 4, 5-[2-(6-chloro-pyridin-3-ylamino)-pyrimidin-4-yl]-3,4-dimethyl-3H-thiazol-2-one] | 1100 ± 600 |  | 140 | 21 |  | 600 | 1700 | 1100 | 11 | 1500 |  |  | 
3 | COc1ccc(Nc2nccc(-c3sc(N)nc3C)n2)cn1 [Compound 5, [4-(2-Amino-4-methyl-thiazol-5-yl)-pyrimidin-2-yl]-(6-methoxy-pyridin-3-yl)-amine] | 3500 ± 400 | < 10000 | 70 | 5 | 60 | 4000 | 3100 | 3500 | 350 | 5500 | 950 | 710 | 
4 | COc1ccc(Nc2nccc(-c3sc(C)nc3C)n2)cn1 [Compound 6, [4-(2,4-Dimethyl-thiazol-5-yl)-pyrimidin-2-yl]-(6-methoxy-pyridin-3-yl)-amine] | 4600 ± 3100 | < 10000 | 130 | 280 | 460 | 1400 | 7500 | 5100 |  | 2800 | 1400 | 1400 | 
5 | Cc1nc(N)sc1-c1ccnc(Nc2ccc(Cl)nc2)n1 [Compound 7, [4-(2-Amino-4-methyl-thiazol-5-yl)-pyrimidin-2-yl]-(6-chloro-pyridin-3-yl)-amine] | 3200 ± 100 | < 10000 | 50 | 5 | 70 | 3400 | 3100 | 3300 | 160 | 2000 | 860 | 1500 | 
6 | CNc1nc(C)c(-c2ccnc(Nc3ccc(OC)nc3)n2)s1 [Compound 8, (6-Methoxy-pyridin-3-yl)-[4-(4-methyl-2-methylamino-thiazol-5-yl)-pyrimidin-2-yl]-amine] | 1700 ± 300 |  | 30 | 6 | 40 | 2000 | 1700 | 1400 | 50 | 840 | 270 | 430 | 
7 | CNc1nc(C)c(-c2ccnc(Nc3ccc(Cl)nc3)n2)s1 [Compound 9, (6-Chloro-pyridin-3-yl)-[4-(4-methyl-2-methylamino-thiazol-5-yl)-pyrimidin-2-yl]-amine] | 4600 ± 800 | < 10000 | 80 | 110 | 980 | 4700 | 5200 | 3700 |  |  | 480 |  | 1000
8 | COc1ccc(Nc2nccc(-c3sc(N(C)C)nc3C)n2)cn1 [Compound 10, [4-(2-Dimethylamino-4-methyl-thiazol-5-yl)-pyrimidin-2-yl]-(6-methoxy-pyridin-3-yl)-amine] | 2000 ± 400 |  | 120 | 140 | 70 | 1700 | 1800 | 2400 | 110 | 1200 | 330 | 2300 | 
9 | CCn1c(C)c(-c2ccnc(Nc3ccc(OC)nc3)n2)sc1=O [Compound 11, 3-Ethyl-5-[2-(6-methoxy-pyridin-3-ylamino)-pyrimidin-4-yl]-4-methyl-3H-thiazol-2-one] |  |  | 110 | 27 | 1200 |  |  |  | 13 | 3400 | 370 | 230 | 
10 | CCNc1nc(C)c(-c2ccnc(Nc3ccc(OC)nc3)n2)s1 [Compound 12, [4-(2-Ethylamino-4-methyl-thiazol-5-yl)-pyrimidin-2-yl]-(6-methoxy-pyridin-3-yl)-amine] | 1200 ± 400 |  | 50 | 90 | 80 | 800 | 1500 | 1200 | 60 | 100 | 30 | 130 | 
11 | COCCNc1nc(C)c(-c2ccnc(Nc3ccc(OC)nc3)n2)s1 [Compound 13, {4-[2-(2-Methoxy-ethylamino)-4-methyl-thiazol-5-yl]-pyrimidin-2-yl}-(6-methoxy-pyridin-3-yl)-amine] |  |  | 250 | 120 | 250 |  |  |  | 100 | 2300 | 950 | 650 | 
12 | Cc1nc(C)c(-c2ccnc(Nc3ccc(N4CCCC4)nc3)n2)s1 [Compound 14, [4-(2,4-Dimethyl-thiazol-5-yl)-pyrimidin-2-yl]-(6-pyrrolidin-1-yl-pyridin-3-yl)-amine] | 300 |  |  | 100 | 2600 |  | 320 | 300 |  | 2100 | 1400 | 730 | 120
13 | CNc1nc(C)c(-c2ccnc(Nc3ccc(N4CCN(C)CC4)nc3)n2)s1 [Compound 15, [4-(4-Methyl-2-methylamino-thiazol-5-yl)-pyrimidin-2-yl]-[6-(4-methyl-piperazin-1-yl)-pyridin-3-yl]-amine] |  |  |  | 80 | 80 |  |  |  | 2900 |  | 1500 | 280 | 
